Data taken from patent US20080306116A1, “ARYLOXAZOLE, ARYLOXADIAZOLE AND BENZIMIDAZOLE DERIVATIVES” (priority 2007, published 2008).

The molecules below were run against T1, human subtype 5 somatostatin receptor (Homo sapiens, UniProt P35346) (assay: radioligand replacement (binding) assay, membranes of CHO cells expressing human SSTR5, 125I-labeled 11-Tyr somatostatin-14 tracer). Conditions: CHO cell membranes, 0.05 nM 125I-labeled 11-Tyr somatostatin-14, 1 h at rt; Ki calculated from IC50 by Cheng-Prussoff equation; read-out: hSSTR5 Ki.
T1 construct: host or cells: CHO cell line, stably transfected; membranes used
T1 sequence (P35346 whole entry): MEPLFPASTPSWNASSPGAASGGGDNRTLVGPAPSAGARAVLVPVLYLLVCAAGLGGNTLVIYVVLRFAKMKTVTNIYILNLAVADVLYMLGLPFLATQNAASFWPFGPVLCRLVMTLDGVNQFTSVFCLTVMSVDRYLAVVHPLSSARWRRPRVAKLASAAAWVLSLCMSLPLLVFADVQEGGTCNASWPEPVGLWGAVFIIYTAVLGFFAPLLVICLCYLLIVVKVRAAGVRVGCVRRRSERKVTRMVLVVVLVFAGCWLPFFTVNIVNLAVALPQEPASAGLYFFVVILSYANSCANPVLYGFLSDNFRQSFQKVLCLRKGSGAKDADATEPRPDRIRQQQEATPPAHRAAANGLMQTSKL
Protocol: A CHO cell line stably transfected with a plasmid encoding the human subtype 5 somatostatin receptor (GenBank accession number D16827) was obtained from Euroscreen. Cells were cultured and used for binding and functional assays.
Membranes of these cells were prepared by sonication in the presence of protease inhibitors and subsequent fractionating centrifugation. The protein concentration in the membrane preparation was determined using a commercial kit (BCA kit, Pierce, USA). Membranes were stored at −80° C. until use. After thawing membranes were diluted in assay buffer (50 mM Tris-HCl at pH 7.4, 5 mM MgCl2 and 0.20% BSA) and subjected to dounce homogenization.
For binding studies, 0.1 mL membrane suspension, corresponding to approximately 6×10^−15 mol receptor, was incubated for 1 h at rt with 0.05 nM ^125I-labeled tracer (11-Tyr somatostatin-14, Perkin-Elmer) and either test compound in varying concentrations or, for the determination of non-specific binding, 0.001 mM non-labeled somatostatin-14. The incubation was stopped by filtration through GF/B glassfiber filters and washing with ice-cold wash buffer (50 mM Tris-HCl at pH 7.4). The bound radioactivity was measured after application of a scintillation cocktail (Microscint 40) and expressed as disintegrations per minute (dpm).
The receptor concentration was determined in a prior saturation experiment where a fixed, arbitrary amount of membranes was incubated with a concentration range of radio-labeled tracer. This allows estimating the total number of specific binding sites per amount of protein (i.e., Bmax), typically between 1 and 5 pmol/mg.
The concentration of the test compound required to result in half maximal inhibition of binding of the radio-labeled tracer (IC50) was estimated from a concentration-versus-dpm graph. The binding affinity (Ki) was calculated from the IC50 by applying the Cheng-Prussoff equation for single binding sites.

Row | Structure (SMILES) | Ki
1 | CCOc1cc(CN2CCC(Nc3ncc(-c4ccccc4)o3)CC2)cc(OCC)c1Cl [Example 37, [1-(4-Chloro-3,5-diethoxy-benzyl)-piperidin-4-yl]-(5-phenyl-oxazol-2-yl)amine] | 0.012 µM
2 | CCOc1cc(CN2CCC(Nc3nc(-c4ccc(C(F)(F)F)cc4)co3)CC2)cc(OCC)c1-c1ccc(F)cc1 [Example 49] | 0.073 µM
3 | CCOc1cc(CN2CCC(Nc3nc4ccccc4n3C)CC2)ccc1Cl [Example 11, [1-(4-Chloro-3-ethoxy-benzyl)-piperidin-4-yl]-(1-methyl-1H-benzoimidazol-2-yl)-amine] | 0.042 µM
4 | CCOc1cc(CN2CCC(Nc3nc(-c4ccc(Cl)cc4)co3)CC2)cc(OCC)c1Cl [Example 27, [1-(4-Chloro-3,5-diethoxy-benzyl)-piperidin-4-yl]-[4(4-chloro-phenyl)oxazol-2-yl]-amine] | 0.008 µM
5 | CCOc1cc(CN2CCC(Nc3nc(-c4ccccc4)no3)CC2)cc2c1OC(C)(C)C=C2 [Example 7, [1-(8-Ethoxy-2,2-dimethyl-2H-chromen-6-ylmethyl)-piperidin-4-yl]-(3-phenyl-[1,2,4]oxadiazol-5-yl)-amine] | 0.449 µM
6 | CCOc1cc(CN2CCC(Nc3nc(-c4ccccc4)co3)CC2)cc(OCC)c1-c1ccc(F)cc1 [Example 24] | 0.027 µM
7 | CCOc1cc(CN2CCC(Nc3ncc(-c4ccccc4)o3)CC2)cc(OCC)c1-c1ccc(F)cc1 [Example 33, [1-(2,6-Diethoxy-4′-fluoro-biphenyl-4-ylmethyl)-piperidin-4-yl]-(5-phenyl-oxazol-2-yl)-amine] | 0.028 µM
8 | CCOc1cc(CN2CCC(Nc3nc(-c4ccccc4)no3)CC2)cc(OCC)c1N [Example 9, [1-(4-Amino-3,5-diethoxy-benzyl)-piperidin-4-yl]-(3-phenyl-[1,2,4]oxadiazol-5-yl)-amine] | 0.041 µM
9 | CCOc1cc(CN2CCC(Nc3ncc(-c4ccc(OC)cc4)o3)CC2)cc(OCC)c1-c1ccc(F)cc1 [Example 40, [1-(2,6-Diethoxy-4′-fluoro-bipehenyl-4-ylmethyl)-piperidin-4-yl]-[5-(4-methoxy-phenyl)-oxazol-2-yl]-amine] | 0.046 µM
10 | CCOc1cc(CN2CCC(Nc3nc(-c4ccccc4)no3)CC2)ccc1C [Example 1, [1-(3-Ethoxy-4-methyl-benzyl)-piperidin-4-yl]-(3-phenyl-[1,2,4]oxadiazol-5-yl)-amine] | 0.074 µM
11 | CCOc1cc(CN2CCC(Nc3nc(-c4cccc(OC)c4)co3)CC2)cc(OCC)c1-c1ccc(F)cc1 [Example 15, [1-(2,6-Diethoxy-4′-fluoro-biphenyl-4-ylmethyl)-piperidin-4-yl]-[4-(3-methoxy-phenyl)-oxazol-2-yl]-amine] | 0.048 µM
12 | COc1ccc(CN2CCC(Nc3nc(-c4ccccc4)no3)CC2)cc1OCC(C)C [Example 5, [1-(3-Isobutoxy-4-methoxy-benzyl)piperidin-4-yl]-(3-phenyl-[1,2,4]oxadiazol-5-yl)-amine] | 0.116 µM
13 | CCOc1cc(CN2CCC(Nc3nc(-c4ccccc4)no3)CC2)ccc1Cl [Example 2, [1-(4-Chloro-3-ethoxy-benzyl)-piperidin-4-yl]-(3-phenyl-[1,2,4]oxadiazol-5-yl)-amine] | 0.091 µM
14 | CCOc1cc(CN2CCC(Nc3ncc(-c4ccccc4)o3)CC2)cc(OCC)c1C [Example 46, [1-(3,5-Diethoxy-4-methyl-benzyl)-piperidin-4-yl]-(5-phenyl-oxazol-2-yl)-amine] | 0.012 µM
15 | CCOc1cc(CN2CCC(Nc3nc(-c4ccc(F)cc4)co3)CC2)cc(OCC)c1F [Example 19, [1-(3,5-Diethoxy-fluoro-benzyl)-piperidin-4yl]-[4-(4-fluoro-phenyl)-oxazol-2-yl]-amine] | 0.026 µM
16 | CC(C)Oc1cc(CN2CCC(Nc3nc4ccccc4n3C)CC2)cc(OC(C)C)c1 [Example 13, [1-(3,5-Diisopropoxy-benzyl)-piperidin-4-yl]-(1-methyl-1H-benzoimidazol-2-yl)-amine] | 0.035 µM
